Molecules are shown by their SMILES. pIC50: −log10 of the molar value.

The target of one series is T1, rat follicle stimulating hormone receptor (rFSHR) (Rattus norvegicus, UniProt P20395).
T1 construct: expressed in transfected cells
T1 sequence (P20395 18-692): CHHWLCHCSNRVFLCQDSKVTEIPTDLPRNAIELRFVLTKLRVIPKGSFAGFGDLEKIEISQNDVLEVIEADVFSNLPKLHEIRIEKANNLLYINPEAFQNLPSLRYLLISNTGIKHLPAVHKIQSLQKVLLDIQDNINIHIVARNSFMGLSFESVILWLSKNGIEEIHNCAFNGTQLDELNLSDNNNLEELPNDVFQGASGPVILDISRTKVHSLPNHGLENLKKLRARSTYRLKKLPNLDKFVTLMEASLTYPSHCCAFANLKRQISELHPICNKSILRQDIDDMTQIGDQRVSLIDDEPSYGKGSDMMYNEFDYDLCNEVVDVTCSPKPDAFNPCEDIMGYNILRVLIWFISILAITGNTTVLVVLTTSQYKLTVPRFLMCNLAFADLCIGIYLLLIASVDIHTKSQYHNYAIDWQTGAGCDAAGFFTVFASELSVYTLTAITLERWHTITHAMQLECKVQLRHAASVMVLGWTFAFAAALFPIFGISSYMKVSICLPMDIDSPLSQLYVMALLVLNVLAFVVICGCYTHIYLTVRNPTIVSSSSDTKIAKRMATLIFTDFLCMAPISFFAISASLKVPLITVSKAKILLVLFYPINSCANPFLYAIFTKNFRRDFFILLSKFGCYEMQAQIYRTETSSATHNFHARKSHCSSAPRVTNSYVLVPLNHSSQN
The series is described as follows: Intracellular cAMP measurement (HTRF) assay, antagonism of EC70 of hFSH. It counts as cell-based. Particulars: HEK293 cells expressing rFSHR, 1 ng/ml hFSH (EC70), read-out: Class (IC50 to antagonise an EC70 of FSH receptors agonist such as hFSH). An excerpt: Intracellular cAMP Measurement Assay
The Intracellular cAMP measurement assay is a functional cell-based assay used to study GPCR function. This method relies on a Time-Resolved Fluorescence (HTRF) assay to measure the cAMP accumulation upon receptor-mediated Gs protein activation in cells expressing recombinant GPCR or in cells from native tissues. In brief, this method is a competitive immunoassay between native cAMP produced by cells and the cAMP labeled with a fluorescent tag. The endogenously produced cAMP competes with exogenous added d2-labelled cAMP for the cAMP binding site on a Eu3+ cryptate labelled anti-cAMP antibody. The d2-labelled cAMP and the Eu^3+ labelled antibody produces a basal fluroresence via HTRF and therefore an intracellular increase in unlabelled cAMP is detected as decrease in this signal. cAMP is one of the most important intracellular mediators. Its concentration in cells can be increased upon binding of many hormones to their receptors. The most studied pathway consists in the release of α-subunit GTP-binding proteins following ligand-receptor interaction, which in turn activates or inhibits the ATP/cAMP conversion function of adenylate cyclase enzyme. cAMP is then involved in many complex regulatory processes such as protein kinase activation or ion channel gating. This method is widely used to study receptor activation of G protein in cells over-expressing GPCRs or in native cells, including FSH receptors expressing cells (Gabriel et al., Assay Drug Dev. Technol., 1, 291-303, 2003).
Transfection and cell culture: The cDNA encoding the rat follicle stimulating hormone receptor (rFSHR), (accession number NM_199237, NCBI Nucleotide database browser) was subcloned into an expression vector containing also the hygromycin resistance gene. Transfection of this vector into HEK293 cells with PolyFect reagent (Qiagen) according to supplier's protocol, and hygromycin treatment allowed selection of antibiotic resistant cells which had integrated stably one or more copies of the plasmid. Positive cellular clones expressing rFSHR were identified in a functional assay measuring cAMP production in cells following stimulation by addition of purified human follicle stimulating hormone (hFSH).
HTRF cAMP assay: On the day of the experiment, cells were detached from the Petri dish and distributed in a low volume, black-walled 384-well plate at a density of 5,000 cells/well in an assay buffer containing 1 mM IBMX to prevent cAMP degradation by cytoplasmic phosphodiesterases. The determination of the cAMP accumulation was performed using an HTRF assay (Trinquet et al., Anal. Biochem., 358, 126-135, 2006). Briefly, cells were incubated for 3 min in the presence of increasing concentrations of negative allosteric modulators (from 1 nM to 60 μM) and then 30 min in the presence of 1 ng/ml of hFSH, an agonist of rat FSH receptor, that has been determined in previous experiments to correspond to the EC70, a concentration that gives 70% of the maximal response of the agonist, and is in accordance with published data (Fox et al., Mol. Endocrin., 15, 378-389, 2001). […] Cells were then lysed by adding the HTRF assay components, the europium cryptate-labeled anti-cAMP antibody, and the XL665-labeled cAMP analog, previously diluted in a HEPES buffer (50 mM, pH 7.0) containing 0.8 M potassium fluoride, 0.2% (w/v) BSA, and 1% (v/v) Triton X-100, a percentage of detergent that ensure complete cell lysis. Assay was then incubated for 1 hr at room temperature, and HTRF signal was measured after excitation at 337 nm, and dual emission at 620 and 665 nm, using a RubyStar fluorimeter (BMG Labtechnologies). Moreover, the fluorescence ratio of an appropriate range of known concentrations of cAMP standards was also included on each assay plate to produce a standard cAMP curve. […]
On the technique in general: TR-FRET usually uses a lanthanide donor and a delayed reading to cut background.
For `CCc1cc(NC(=O)c2ccc(OC)c(OC)c2)ccc1C(C)(C)CNC(=O)c1cnc2[nH]cnc2c1` [Example 198, 3H-Imidazo[4,5-b]pyridine-6-carboxylic acid {2-[4-(3,4-dimethoxy-benzoylamino)-2-ethyl-phenyl]-2-methyl-propyl}-amide], the pIC50 is over 6.82.

`COc1ccc(C(=O)Nc2ccc(C(C)(C)CCNC(=O)c3cnc4[nH]cnc4c3)cc2)cc1OC` [Example 199, 3H-Imidazo[4,5-b]pyridine-6-carboxylic acid {3-[4-(3,4-dimethoxy-benzoylamino)-phenyl]-3-methyl-butyl}-amide]: the negative logarithm of the IC50 (pIC50) is 6.40 to 6.82.

With `COc1ccc(C(=O)Nc2ccc(C(C)(C)CNC(=O)c3cnc4[nH]ccc4c3)cc2)cc1OC` [Example 202], the pIC50 is over 6.82.

For `COc1ccc(C(=O)Nc2cccc(C(C)(C)CNC(=O)c3cnc4ccccn34)c2)cc1OC` [Example 203, Imidazo[1,2-a]pyridine-3-carboxylic acid {2-[3-(3,4-dimethoxy-benzoylamino)-phenyl]-2-methyl-propyl}-amide], the pIC50 is 6.40 to 6.82.

`COc1ccc(C(=O)Nc2ccc(C(C)(C)C#N)c(N3CCOCC3)c2)cc1OC` [Example 204, N-[4-(Cyano-dimethyl-methyl)-3-morpholin-4-yl-phenyl]-3,4-dimethoxy-benzamide]: the pIC50 is at most 6.00.

For the compound `COc1ccc(C(=O)Nc2ccc(C(C)(C)C#N)c(-c3cnn(C)c3)c2)cc1OC` [Example 205, N-[4-(Cyano-dimethyl-methyl)-3-(1-methyl-1H-pyrazol-4-yl)-phenyl]-3,4-dimethoxy-benzamide], the negative logarithm of the IC50 (pIC50) is 6.00 to 6.40.

Take `COc1ccc(C(=O)Nc2ccc(C(C)(C)C#N)c(-c3cccs3)c2)cc1OC` [Example 206, N-[4-(Cyano-dimethyl-methyl)-3-thiophen-2-yl-phenyl]-3,4-dimethoxy-benzamide]: the pIC50 is over 6.82.

In the case of `COc1ccc(C(=O)Nc2ccc(C(C)(C)CNC(=O)c3ccc4[nH]cnc4c3)cc2)cc1OC` [Example 207], the pIC50 was 6.40 to 6.82.

`COc1ccc(C(=O)Nc2ccc(C(C)(C)CNC(=O)c3ccc4[nH]c(C)nc4c3)cc2)cc1OC` [Example 208]: the pIC50 was 6.00 to 6.40.

As for `COc1ccc(C(=O)Nc2ccc(C(C)(C)CNC(=O)c3ccc4c(c3)nc(C)n4C)cc2)cc1OC` [Example 209], the pIC50 is at most 6.00.

As for `COc1ccc(C(=O)Nc2ccc(C(C)(C)CNC(=O)c3ccc4c(c3)n(C)c(=O)n4C)cc2)cc1OC` [Example 210], the pIC50 was 6.00 to 6.40.

Take `COc1ccc(C(=O)Nc2ccc(C(C)(C)CNC(=O)c3cnc4ccc(F)cn34)cc2)cc1OC` [Example 211]: the pIC50 is over 6.82.

For `COc1ccc(C(=O)Nc2ccc(C(C)(CO)CNC(=O)c3cnc4ccccn34)cc2)cc1OC` (stereo not shown) [Example 212, Imidazo[1,2-a]pyridine-3-carboxylic acid {2-[4-(3,4-dimethoxy-benzoylamino)-phenyl]-3-hydroxy-2-methyl-propyl}-amide], the pIC50 is at most 6.00.

`COc1ccc(C(=O)Nc2ccc(C(C)(C)CNC(=O)c3nc4ccncc4[nH]3)cc2)cc1OC` [Example 214]: the pIC50 was 6.40 to 6.82.

As to `COc1ccc(C(=O)Nc2ccc(C(C)(C)CNC(=O)c3c[nH]c4cnccc34)cc2)cc1OC` [Example 215], the negative logarithm of the IC50 (pIC50) was 6.00 to 6.40.

With `COc1ccc(C(=O)Nc2ccc(C(C)(C)CNC(=O)c3c[nH]c4ncc(F)cc34)cc2)cc1OC` [Example 216], the pIC50 was 6.40 to 6.82.

As to `COc1ccc(C(=O)Nc2ccc(C(C)(C)CCNC(C)=O)c(-c3cccnc3)c2)cc1OC` [Example 221, N-(4-(4-acetamido-2-methylbutan-2-yl)-3-(pyridin-3-yl)-phenyl)-3,4-dimethoxybenzamide], the pIC50 is 6.00 to 6.40.

Test system in a further series: not given
Test: not given
Settings: not given
`COc1ccc(C(=O)Nc2ccc(C(C)(C)C#N)cc2)cc1OC` [Example 1, N-[4-(Cyano-dimethyl-methyl)-phenyl]-3,4-dimethoxy-benzamide] yielded a melting point of 139 to 141 °C.

The compound `COc1ccc(C(=O)Nc2ccc(C3(C#N)CC3)cc2)cc1OC` [Example 2, N-[4-(1-Cyano-cyclopropyl)-phenyl]-3,4-dimethoxy-benzamide] yielded a melting point of 204 to 207 °C.

In the case of `N#CC1(c2ccc(NC(=O)c3ccc4c(c3)OCCO4)cc2)CCCC1` [Example 3, 2,3-Dihydro-benzo[1,4]dioxin-6-carboxylic acid [4-(1-cyano-cyclopentyl)-phenyl]-amide], the melting point lay within 164 to 167 °C.

Turning to `COc1ccc(C(=O)Nc2cccc(C3(C#N)CCCC3)c2)cc1OC` [Example 14, N-[3-(1-Cyano-cyclopentyl)-phenyl]-3,4-dimethoxy-benzamide], the melting point is 59 to 61 °C.

Compound `COc1ccc(C(=O)Nc2ccc(C(C)(C)C(N)=O)cc2)cc1OC` [Example 21, N-[4-(1-Carbamoyl-1-methyl-ethyl)-phenyl]-3,4-dimethoxy-benzamide] came in with a melting point of 193 to 195 °C.

`COc1ccc(C(=O)Nc2ccc(C3(CNC(=O)C(C)(C)C)CCCC3)cc2)cc1OC` [Example 23, N-(4-{1-[(2,2-Dimethyl-propionylamino)-methyl]-cyclopentyl}-phenyl)-3,4-dimethoxy-benzamide] yielded a melting point of 165 to 167 °C.

The compound `COc1ccc(C(=O)Nc2ccc(C(C)(C)CNC(C)=O)cc2)cc1OC` [Example 26, N-[4-(2-Acetylamino-1,1-dimethyl-ethyl)-phenyl]-3,4-dimethoxy-benzamide] gave a melting point of 195 to 197 °C.

Regarding `COc1ccc(C(=O)Nc2ccc(C3(CNC(=O)c4cscn4)CCCC3)cc2)cc1OC` [Example 29, Thiazole-4-carboxylic acid {1-[4-(3,4-dimethoxy-benzoylamino)-phenyl]-cyclopentylmethyl}-amide], the melting point is 101 to 104 °C.

As for `COC(=O)NCC(C)(C)c1ccc(NC(=O)c2ccc(OC)c(OC)c2)cc1` [Example 52, {2-[4-(3,4-Dimethoxy-benzoylamino)-phenyl]-2-methyl-propyl}-carbamic acid methyl ester], the melting point was in the range of 67 to 69 °C.

For the compound `COc1ccc(C(=O)Nc2ccc(C(C)(C)c3noc(COc4ccccc4)n3)cc2)cc1OC` [Example 53, 3,4-Dimethoxy-N-{4-[1-methyl-1-(5-phenoxymethyl-[1,2,4]oxadiazol-3-yl)-ethyl]-phenyl}-benzamide], the melting point was in the range of 165 to 167 °C.

As to `COc1ccc(C(=O)Nc2ccc(C3(CNC(C)=O)CC3)cc2)cc1OC` [Example 54, N-{4-[1-(Acetylamino-methyl)-cyclopropyl]-phenyl}-3,4-dimethoxy-benzamide], the melting point was in the range of 204 to 206 °C.

Usually pIC50 stands for −log10 of the IC50, conventionally taken in molar units. Broadly, the melting point is the temperature, or range, at which the solid turns liquid.
